Values quoted from earlier work, collected in PubChem BioAssay AID1259409 (Chemical Carcinogenesis Research Information System (CCRIS), 2018).

Tested on: rodent chemically induced tumor inhibition, incidence and multiplicity
Assay: CCRIS tumor inhibitor studies
Conditions: 64091-91-4, Promoter: NONE USED

S=C=NCCc1ccccc1
tumour outcome (control, treated, inhibition, significance) (Carcinogen: 4-(METHYLNITROSAMINO)-1-(3-PYRIDYL)-1-BUTANONE, Dose [Inhibitor]: 3 UMOL/G DIET BEGINNING 1 WK PRIOR TO FIRST CARCINOGEN DOSE (STUDY DURATION: 104 WK), Route [Inhibitor]: ORAL, Species: RAT, Strain/Sex: F344/MALE, Target Tissue: Type of Lesion: HEMATOPOIETIC SYSTEM: LEUKEMIA OR LYMPHOMA, Dose [Carcinogen]: 1.76 MG/KG 3/WK FOR 20 WK): 5/40 (13%), 3/40 (8%), 38%, not calculated
tumour outcome (control, treated, inhibition, significance) (Carcinogen: 4-(METHYLNITROSAMINO)-1-(3-PYRIDYL)-1-BUTANONE, Dose [Inhibitor]: 3 UMOL/G DIET BEGINNING 1 WK PRIOR TO FIRST CARCINOGEN DOSE (STUDY DURATION: 104 WK), Route [Inhibitor]: ORAL, Species: RAT, Strain/Sex: F344/MALE, Target Tissue: Type of Lesion: LUNG: ADENOMA OR CARCINOMA, Dose [Carcinogen]: 1.76 MG/KG 3/WK FOR 20 WK): 32/40 (80%), 17/40 (43%), 46%, p<0.05
tumour outcome (control, treated, inhibition, significance) (Carcinogen: 4-(METHYLNITROSAMINO)-1-(3-PYRIDYL)-1-BUTANONE, Dose [Inhibitor]: 3 UMOL/G DIET BEGINNING 1 WK PRIOR TO FIRST CARCINOGEN DOSE (STUDY DURATION: 104 WK), Route [Inhibitor]: ORAL, Species: RAT, Strain/Sex: F344/MALE, Target Tissue: Type of Lesion: LUNG: ADENOMA OR HEPATOCELLULAR CARCINOMA, Dose [Carcinogen]: 1.76 MG/KG 3/WK FOR 20 WK): 15/40 (38%), 14/40 (35%), 8%, not calculated
tumour outcome (control, treated, inhibition, significance) (Carcinogen: 4-(METHYLNITROSAMINO)-1-(3-PYRIDYL)-1-BUTANONE, Dose [Inhibitor]: 3 UMOL/G DIET BEGINNING 1 WK PRIOR TO FIRST CARCINOGEN DOSE (STUDY DURATION: 104 WK), Route [Inhibitor]: ORAL, Species: RAT, Strain/Sex: F344/MALE, Target Tissue: Type of Lesion: MAMMARY GLAND: ADENOCARCINOMA OR FIBROADENOMA OR FIBROMA, Dose [Carcinogen]: 1.76 MG/KG 3/WK FOR 20 WK): 5/40 (13%), 0/40 (0%), 100%, not calculated
tumour outcome (control, treated, inhibition, significance) (Carcinogen: 4-(METHYLNITROSAMINO)-1-(3-PYRIDYL)-1-BUTANONE, Dose [Inhibitor]: 3 UMOL/G DIET BEGINNING 1 WK PRIOR TO FIRST CARCINOGEN DOSE (STUDY DURATION: 104 WK), Route [Inhibitor]: ORAL, Species: RAT, Strain/Sex: F344/MALE, Target Tissue: Type of Lesion: NASAL CAVITY: SQUAMOUS CELL PAPILLOMA OR TRANSITIONAL-CELL PAPILLOMA OR POLYP OR SQUAMOUS CELL CARCINOMA, Dose [Carcinogen]: 1.76 MG/KG 3/WK FOR 20 WK): 11/40 (28%), 7/40 (18%), 36%, not calculated
tumour outcome (control, treated, inhibition, significance) (Carcinogen: 4-(METHYLNITROSAMINO)-1-(3-PYRIDYL)-1-BUTANONE, Dose [Inhibitor]: 3 UMOL/G DIET BEGINNING 1 WK PRIOR TO FIRST CARCINOGEN DOSE (STUDY DURATION: 104 WK), Route [Inhibitor]: ORAL, Species: RAT, Strain/Sex: F344/MALE, Target Tissue: Type of Lesion: PANCREAS: EXOCRINE ADENOCARCINOMA OR EXOCRINE ADENOMA, Dose [Carcinogen]: 1.76 MG/KG 3/WK FOR 20 WK): 1/40 (3%), 5/40 (13%), -333%, not calculated
tumour outcome (control, treated, inhibition, significance) (Carcinogen: 4-(METHYLNITROSAMINO)-1-(3-PYRIDYL)-1-BUTANONE, Dose [Inhibitor]: 3 UMOL/G DIET BEGINNING 1 WK PRIOR TO FIRST CARCINOGEN DOSE (STUDY DURATION: 104 WK), Route [Inhibitor]: ORAL, Species: RAT, Strain/Sex: F344/MALE, Target Tissue: Type of Lesion: PERITONEUM: MESOTHELIOMA, Dose [Carcinogen]: 1.76 MG/KG 3/WK FOR 20 WK): 1/40 (3%), 2/40 (5%), -67%, not calculated
tumour outcome (control, treated, inhibition, significance) (Carcinogen: 4-(METHYLNITROSAMINO)-1-(3-PYRIDYL)-1-BUTANONE, Dose [Inhibitor]: 3 UMOL/G DIET BEGINNING 1 WK PRIOR TO FIRST CARCINOGEN DOSE (STUDY DURATION: 104 WK), Route [Inhibitor]: ORAL, Species: RAT, Strain/Sex: F344/MALE, Target Tissue: Type of Lesion: STOMACH: SARCOMA OR PAPILLOMA, Dose [Carcinogen]: 1.76 MG/KG 3/WK FOR 20 WK): 5/40 (13%), 2/40 (5%), 62%, not calculated
tumour outcome (control, treated, inhibition, significance) (Carcinogen: 4-(METHYLNITROSAMINO)-1-(3-PYRIDYL)-1-BUTANONE, Dose [Inhibitor]: 3 UMOL/G DIET BEGINNING 1 WK PRIOR TO FIRST CARCINOGEN DOSE (STUDY DURATION: 104 WK), Route [Inhibitor]: ORAL, Species: RAT, Strain/Sex: F344/MALE, Target Tissue: Type of Lesion: TESTES: TUMOR, Dose [Carcinogen]: 1.76 MG/KG 3/WK FOR 20 WK): 31/40 (78%), 31/40 (78%), 0%
tumour outcome (control, treated, inhibition, significance) (Carcinogen: 4-(METHYLNITROSAMINO)-1-(3-PYRIDYL)-1-BUTANONE, Dose [Inhibitor]: 3 UMOL/G DIET BEGINNING 1 WK PRIOR TO FIRST CARCINOGEN DOSE (STUDY DURATION: 104 WK), Route [Inhibitor]: ORAL, Species: RAT, Strain/Sex: F344/MALE, Target Tissue: Type of Lesion: THYROID: MALIGNANT TUMOR OR BENIGN TUMOR, Dose [Carcinogen]: 1.76 MG/KG 3/WK FOR 20 WK): 1/40 (3%), 3/40 (8%), -166%, not calculated
tumour outcome (control, treated, inhibition, significance) (Carcinogen: 4-(METHYLNITROSAMINO)-1-(3-PYRIDYL)-1-BUTANONE, Dose [Inhibitor]: 5 UMOL/D FOR 4 CONSECUTIVE DAYS (STUDY DURATION: 16 WK), Route [Inhibitor]: GAVAGE, Species: MOUSE, Strain/Sex: STRAIN-A/FEMALE, Target Tissue: Type of Lesion: LUNG: ADENOMA, Dose [Carcinogen]: 10 UMOL ONCE 2 HR POST LAST AGENT DOSE): 30/30 (100%), 18/20 (89%), 11%, not calculated
tumour outcome (control, treated, inhibition, significance) (Carcinogen: 4-(METHYLNITROSAMINO)-1-(3-PYRIDYL)-1-BUTANONE, Dose [Inhibitor]: 25 UMOL/D FOR 4 CONSECUTIVE DAYS (STUDY DURATION: 16 WK), Route [Inhibitor]: GAVAGE, Species: MOUSE, Strain/Sex: STRAIN-A/FEMALE, Target Tissue: Type of Lesion: LUNG: ADENOMA, Dose [Carcinogen]: 10 UMOL ONCE 2 HR POST LAST AGENT DOSE): 30/30 (100%), 6/20 (30%), 70%, p<0.01
tumour outcome (control, treated, inhibition, significance) (Carcinogen: 4-(N-NITROSOMETHYLAMINO)-1-(3-PYRIDYL)-1-BUTANONE, Dose [Inhibitor]: 0, 3 UMOL/G DIET BEGINNING 1 WK PRIOR TO CARCINOGEN TREATMENT AND CONTINUING FOR 21 WK (STUDY DURATION: 104 WK), Route [Inhibitor]: ORAL, Species: RAT, Strain/Sex: F344/MALE, Target Tissue: Type of Lesion: LIVER: ADENOMA, Dose [Carcinogen]: 1.76 MG/KG 3/WK FOR 20 WK): 12/40 (30%), 9/40 (23%), 23%, not calculated
tumour outcome (control, treated, inhibition, significance) (Carcinogen: 4-(N-NITROSOMETHYLAMINO)-1-(3-PYRIDYL)-1-BUTANONE, Dose [Inhibitor]: 0, 3 UMOL/G/DIET BEGINNING 1 WK PRIOR TO CARCINOGEN TREATMENT AND CONTINUING FOR 21 WK (STUDY DURATION: 104 WK), Route [Inhibitor]: ORAL, Species: RAT, Strain/Sex: F344/MALE, Target Tissue: Type of Lesion: LIVER: CARCINOMA, Dose [Carcinogen]: 1.76 MG/KG 3/WK FOR 20 WK): 3/40 (8%), 5/40 (13%), -62%, not calculated
tumour outcome (control, treated, inhibition, significance) (Carcinogen: 4-(N-NITROSOMETHYLAMINO)-1-(3-PYRIDYL)-1-BUTANONE, Dose [Inhibitor]: 0, 3 UMOL/G/DIET BEGINNING 1 WK PRIOR TO CARCINOGEN TREATMENT AND CONTINUING FOR 21 WK (STUDY DURATION: 104 WK), Route [Inhibitor]: ORAL, Species: RAT, Strain/Sex: F344/MALE, Target Tissue: Type of Lesion: LUNG: ADENOMA, Dose [Carcinogen]: 1.76 MG/KG 3/WK FOR 20 WK): 8/40 (20%), 5/40 (13%), 35%, not calculated
tumour outcome (control, treated, inhibition, significance) (Carcinogen: 4-(N-NITROSOMETHYLAMINO)-1-(3-PYRIDYL)-1-BUTANONE, Dose [Inhibitor]: 0, 3 UMOL/G/DIET BEGINNING 1 WK PRIOR TO CARCINOGEN TREATMENT AND CONTINUING FOR 21 WK (STUDY DURATION: 104 WK), Route [Inhibitor]: ORAL, Species: RAT, Strain/Sex: F344/MALE, Target Tissue: Type of Lesion: LUNG: CARCINOMA, Dose [Carcinogen]: 1.76 MG/KG 3/WK FOR 20 WK): 24/40 (60%), 12/40 (30%), 50%, not calculated
